Here are results for five compounds from US5166200A, “Treatment of endometriosis” (Snow Brand Milk Products Company, Limited, priority 1990, dated 1992).

Entries after “also recorded” stand apart in the source; their conditions may differ. Like-named read-outs stand apart in the source and are kept apart here. Bounds are passed on as bounds.

The conditions of data set [1]: cited from earlier work.
Data set [2] deals with estradiol (Ez). Kind of data set: Test (1) serum estradiol (Ez) reduction, subcutaneous administration, PMSG-treated rats, radioimmunoassay. Type of data set: in vivo, SD strain female rats. The conditions noted are these: for Ez-reducing effect: compared with the control group, in both cases of subcutaneous administration (50 mg/kg) and oral administration (100 mg/kg, Test (2)); for Ez concentration in serum (average): subcutaneous, 50 mg/kg, 3 hours after administration, PMSG-treated rats, 5 per group, control (HPC) 0.572. The protocol: (§1) In this Test Example, effects of administration of 6-OA and 6-enol ester compounds thereof on estradiol (Ez) reduction were examined.
20 SD strain female rats of 8-week old were used as test animals. They were divided into four groups each consisting of 5 rats. To all the rats was subcutaneously injected pregnant mare serum gonatropin (PMSG) in an amount of 100 IU/body once every other day (6 times in total). In the beforenoon of the next day of the final (6th) administration of PMSG, 0.5 ml of a solvent, 50 mg/kg of 6-OA, 50 mg/kg of 6-OAp and 50 mg/kg of 6-OAb were subcutaneously administered to group I (control group), group II, group III and group IV, respectively.
After 3 hours from the administration, the rats were subjected to abdomen opening under etherization and then to exsanguination from the main vein. The blood collected from each rat was subjected to serum separation, and the Ez in the serum was determined by radioimmunoassay.
A physiological saline solution containing 0.3% of hydroxy propyl cellulose (HPC) was used as the solvent. 6-OA, 6-OAp and 6-OAb were each suspended in the solvent in such a concentration that the administration amount of the resulting suspension per rat became 0.5 ml.

The test system of data set [3] is aromatase (a steroidogenesis enzyme). To be noted: known; Japanese Patent Application Laid-Open Nos. 192794/1988, 131193/1989; cited from earlier work.
Data set [4] can be described thus: animal toxicity tests (LD50).
Data set [5] has as its system estradiol (Ez). Kind of data set: Test (2) serum estradiol (Ez) reduction, oral administration, PMSG-treated rats, radioimmunoassay. Type of data set: in vivo, SD strain female rats. The conditions noted are these: 100 mg/kg, 6 hours after administration, 5 per group, control (HPC) 0.522. The protocol: as §1
The type, age, number and grouping of test animals were the same as in Test (1).
All of the rats were subcutaneously injected with PMSG, in the same manner as in Test (1), in an amount of 100 IU/body once every other day (6 times in total).
Before noon of the next day of the final (6th) administration of PMSG, 0.5 ml of a solvent, 100 mg/kg of 6-OA, 100 mg/kg of 6-OAp and 100 mg/kg of 6-OAb were orally administered to group I (control group), group II, group III and group IV, respectively.
Aftr 6 hours from the administration, the rats were subjected to exsanguination. The blood collected from each rat was subjected to serum separation, and the Ez in the serum was determined by radioimmunoassay.
The solvent used was the same as in Test (1). 6-OA, 6-OAp and 6-OAb were each suspended in the solvent in such a concentration that the administration amount of the resulting suspension per rat became 0.5 ml.

The test system of data set [6] is experimental endometriosis. Kind of data set: effect on model rats of endometriosis (cysts in endometrium autoplanted under renal capsule). To be noted: 100 mg/kg/day. The class given is in vivo, SD strain female rats. From the text:
In this Test example, effect of administration of 6-OAp on model rats of endometriosis was examined.
SD strain female rats of 7-week old weighing 170-210 g were used as test animals. In these rats, an endometrial segment (about 5 mm×5 mm) was removed from the left uterine horn and autoplanted under the left renal capsule, and formation of cysts in the transplanted endometrium was examined. Those rats which had developed cysts of 0.5-2.0 mm in height in the transplanted endometrium, were used for test.
The rats were divided into three groups. To group I (control group) was orally administered a physiological saline solution containing 0.3% of hydroxy propyl cellulose (HPC) daily in an amount of 0.5 ml/day. To group II was orally administered 6-OAp daily in an amount of 100 mg/kg/day. In this case, 6-OAp was suspended in a physiological saline solution containing 0.3% of HPC in such a concentration that the administration amount of the resulting suspension per rat became 0.5 ml. Group III (positive control) was subjected to ovary removal.
Each rat was subjected to abdomen opening after 3 weeks from the start of administration or after the ovary removal and examined for the presence of cysts.
Chi-square test was used for the statistical analysis of the test data obtained.

With `CCNC(=O)[C@@H]1CCCN1C(=O)[C@H](CCCNC(=N)N)NC(=O)[C@H](CC(C)C)NC(=O)[C@@H](COC(C)(C)C)NC(=O)[C@H](Cc1ccc(O)cc1)NC(=O)[C@H](CO)NC(=O)[C@H](Cc1c[nH]c2ccccc12)NC(=O)[C@H](Cc1cnc[nH]1)NC(=O)[C@@H]1CCC(=O)N1` [buserelin], in data set [1] (treatment of endometriosis, prior art), the side effects entry was “hyposexuality, hot flushes and the like”.

With `C#C[C@]1(O)CC[C@H]2[C@@H]3CCC4=Cc5oncc5C[C@]4(C)[C@H]3CC[C@@]21C` [danazol], the side effects entry in data set [1] (in vivo) was “dyshepatia, masculinization and the like”.

The LD50 is the dose at which mortality reaches 50%. A low value points to a more toxic substance. As to `C[C@]12CCC(=O)C=C1C(=O)C[C@@H]1[C@@H]2CC[C@]2(C)C(=O)CC[C@@]12O` [6-OA, 14α-Hydroxy-4-androstene-3,6,17-trione], in the data set on estradiol (Ez) [2], the Ez-reducing effect entry was “strong Ez-reducing effect” and the “Ez concentration in serum (average)” value was 0.262 ng/mL. Also, the aromatase-inhibitory activity entry in data set [3] is listed as “strong aromatase-inhibitory activity”. Moreover, in data set [4] (animal tests), the toxicity entry is on record as “very low toxicity”. In data set [4] (in vivo), this compound gave an LD50 of over 2000 mg/kg. For the same compound, the “Ez concentration in serum (average)” value in the data set with estradiol (Ez) [5] worked out at 0.291 ng/mL.

For the compound `CCC(=O)OC1=C[C@@H]2[C@H](CC[C@]3(C)C(=O)CC[C@@]23O)[C@@]2(C)CCC(=O)C=C12` [6-OAp, 14α-Hydroxy-androsta-4,6-diene-3,17-dione-6-propionate], in the data set with estradiol (Ez) [2], the Ez-reducing effect result was “strong Ez-reducing effect; also recorded: stronger Ez-reducing effect than the 6-OA group and the 6-OAb group”; the “Ez concentration in serum (average)” value was determined as 0.230 ng/mL. Besides, the “Disappearance (of cysts)” value in data set [6] (oral, 3 weeks, control 9%, ovary-removed 100, significant at 5% level relative to control group (Chi-square)) came out at 41%. Moreover, the Cysts absent in data set [6] (oral, 3 weeks, total 22 rats, control 2 of 22, significant at 5% level relative to control (Chi-square)) is 9 rats. In data set [6] (oral, 3 weeks, total 22 rats, control 20 of 22), the Cysts present was found to be 13 rats. Also, the “effect on experimental endometriosis of rats” value in data set [6] (orally administered daily for 3 weeks) was “effective”. The “Ez concentration in serum (average)” value in the data set on estradiol (Ez) [5] worked out at 0.226 ng/mL.

Consider `C[C@]12CCC(=O)C=C1C(OC(=O)c1ccccc1)=C[C@@H]1[C@@H]2CC[C@]2(C)C(=O)CC[C@@]12O` [6-OAb], for which, in the data set on estradiol (Ez) [2], the Ez-reducing effect result is on record as “strong Ez-reducing effect” and the “Ez concentration in serum (average)” value turned out to be 0.390 ng/mL. The “Ez concentration in serum (average)” value with estradiol (Ez) [5] was 0.422 ng/mL.
